Columns and labels:
[1] = Cytotoxicity against mouse J774A1 cells after 72 hrs by MTT assay; assay type: cell-based; conditions: J774.A1, 72 h
[2] = Aqueous solubility of the compound at pH 7.4; assay type: physicochemical; conditions: buffer
[3] = tested on: Leishmania amazonensis; assay: Antileishmanial activity against intracellular amastigote stage of Leishmania amazonensis LV78 infected in mouse J774A1 cells by colorimetric assay; assay type: functional, organism-based; conditions: LV78, J774.A1
[4] = Aqueous solubility of the compound at pH 2; assay type: physicochemical; conditions: buffer
[5] = Selectivity index, ratio of EC50 for mouse J774A1 cells to EC50 for intracellular amastigote stage of Leishmania donovani MHOM/ET/67/L82; assay type: toxicity, cell-based, J774.A1; conditions: read-out: Ratio EC50
[6] = tested on: Leishmania donovani; assay: Antileishmanial activity against intracellular amastigote stage of Leishmania donovani MHOM/ET/67/L82 infected in mouse J774A1 cells by colorimetric assay; assay type: functional, organism-based; conditions: MHOM/ET/67/L82, J774.A1
[7] = Distribution coefficient, log D of the compound at pH 7.4; assay type: physicochemical; conditions: octanol/water
[8] = Distribution coefficient, log D of the compound at pH 3; assay type: physicochemical; conditions: octanol/water
[9] = pampa, pH 7.4
Description: (§1) Passive transcellular permeability of the compound at pH 7.4 by PAMPA

[10] = pampa, pH 4
Description: (§2) Passive transcellular permeability of the compound at pH 4 by PAMPA

[11] = tested on: Leishmania donovani; assay: Antileishmanial activity against clinical isolate Leishmania donovani BPK206/0 infected in mouse J774A1 cells by colorimetric assay; conditions: BPK206/0, J774.A1
[12] = Toxicity in BALB/c mouse assessed as tolerated dose treated ip for 5 consecutive doses; assay type: organism-based; conditions: in vivo
[13] = tested on: Leishmania donovani; assay: Antileishmanial activity against antimony-resistant clinical isolate Leishmania donovani BPK164/1 infected in mouse J774A1 cells by colorimetric assay; assay type: functional, organism-based; conditions: BPK164/1, J774.A1
[14] = physchem; conditions: pampa, pH 4
Description: as §2

[15] = physchem; conditions: pampa, pH 7.4
Description: as §1

Papp [14] [nm/s]	Papp [15] [nm/s]	Structure (SMILES)	EC50 [1] [µM]	solubility [2] [µM]	EC50 [3] [µM]	solubility [4] [µM]	selectivity ratio [5]	EC50 [6] [µM]	logD [7]	logD [8]	permeability [9] [nm/s]	permeability [10] [nm/s]	EC50 [11] [µM]	MTD at 5 consecutive doses [12] [mg/kg]	EC50 [13] [µM]
–	–	c1ccc(CNc2nc(NCc3ccccc3)c3ccccc3n2)cc1	5.5	≤ 5	1.4	≤ 20	8.2	0.67	–	–	–	–	–	–	–
–	–	CNc1nc(NCc2ccccc2)c2ccccc2n1	18	≥ 30	13	≥ 30	12	1.5	3.14	2.11	–	–	–	–	–
–	–	CCCCNc1nc(NCCCC)c2ccccc2n1	5.4	≤ 10	2.1	≥ 30	3	1.8	3.89	2.91	8800	4850	–	–	–
–	–	CSCCNc1nc(NC(C)C)nc2ccccc12	20	≤ 20	5.1	≥ 30	4.7	4.3	3.02	2.06	14800	288	–	–	–
–	–	CC(C)Nc1nc(NCc2ccco2)c2ccccc2n1	17	≥ 30	3.7	≥ 30	6.8	2.5	3.15	2.18	8830	622	–	–	–
–	–	FC(F)(F)CNc1nc(NCc2ccco2)c2ccccc2n1	23	≤ 10	5.8	≥ 30	6.4	3.6	4.2	2.02	9790	677	–	–	–
–	–	OCCNc1nc(NCc2ccco2)c2ccccc2n1	> 33	≤ 20	> 50	≥ 30	> 1.3	25	2.19	1.48	11300	264	–	–	–
–	–	CC(C)Nc1nc(N(C)C)c2ccccc2n1	> 33	≤ 10	19	≥ 30	> 3.7	8.9	3.13	1.64	11200	723	–	–	–
–	–	CC(C)Nc1nc(NCC(F)(F)F)c2ccccc2n1	> 33	≥ 30	7.6	≥ 30	> 8.9	3.7	3.19	2.4	7800	197	–	–	–
–	–	CC(C)Nc1nc(NC2CCCCC2)c2ccccc2n1	–	≤ 20	> 50	–	–	> 50	–	–	–	–	–	–	–
–	–	CCOC(=O)CNc1nc(NC(C)C)nc2ccccc12	> 33	≤ 20	20	≥ 30	> 4.8	6.9	2.54	1.73	7440	388	–	–	–
–	–	CC(C)Nc1nc(NCc2ccco2)c2cccc(Cl)c2n1	> 33	≤ 5	18	≥ 30	> 7.5	4.4	3.96	2.38	13300	676	–	–	–
–	–	CC(C)Nc1nc(NCc2ccco2)c2ccc(Cl)cc2n1	> 100	≤ 20	23	≥ 30	> 11	9	3.91	2.51	13800	1030	–	–	–
–	–	CC(C)Nc1nc(NCc2ccco2)c2cc(Cl)ccc2n1	> 33	≤ 20	25	≥ 30	> 13	2.6	3.99	2.6	16300	1700	–	–	–
–	–	CC(C)Nc1nc(NCc2ccco2)c2c(Cl)cccc2n1	25	≤ 10	12	≥ 30	11	2.3	4.44	2.62	12400	1690	–	–	–
–	–	Cc1cccc2c(NCc3ccco3)nc(NC(C)C)nc12	> 33	≤ 20	4.4	≥ 30	> 7.9	4.2	3.55	1.57	6660	459	–	–	–
–	–	Cc1ccc2nc(NC(C)C)nc(NCc3ccco3)c2c1	> 33	≤ 20	15	≥ 30	> 7	4.7	3.63	1.55	7890	672	–	–	–
–	–	Cc1cccc2nc(NC(C)C)nc(NCc3ccco3)c12	20	≤ 10	3.6	≥ 30	21	0.95	3.55	2.44	8120	459	–	–	–
–	–	COc1cccc2c(NCc3ccco3)nc(NC(C)C)nc12	30	≤ 20	7.3	≥ 30	9.4	3.2	3.4	2.99	10600	384	–	–	–
–	–	COc1ccc2c(NCc3ccco3)nc(NC(C)C)nc2c1	16	≤ 20	10	≥ 30	13	1.2	3.7	3.11	13300	592	–	–	–
–	–	COc1ccc2nc(NC(C)C)nc(NCc3ccco3)c2c1	14	≥ 30	9.6	≥ 30	19	0.74	3.58	2.95	10100	802	–	–	–
–	–	COc1cccc2nc(NC(C)C)nc(NCc3ccco3)c12	18	≤ 20	2.7	≥ 30	19	0.97	3.35	2.53	6240	870	–	–	–
–	–	CCCCNc1nc(NCc2ccccc2)c2ccccc2n1	5.1	≤ 10	1.8	–	7.8	0.65	–	–	–	–	–	–	–
–	–	c1ccc(CNc2nc(Nc3ccccc3)c3ccccc3n2)cc1	5.2	≤ 5	2.2	≥ 30	20	0.26	4.25	2.67	6630	4120	–	–	–
–	–	CNc1nc(NCc2ccccc2)nc2ccccc12	15	≤ 10	0.9	≥ 30	100	0.15	2.96	2	17200	571	2.8	30	2
–	–	c1ccc(CNc2nc(Nc3ccccc3)nc3ccccc23)cc1	6.8	≤ 5	2.6	≤ 5	11	0.64	4.17	2.78	14800	2710	–	–	–
1080	1300	NC(=O)N1c2ccccc2C=Cc2ccccc21 [CARBAMAZEPINE]	–	–	–	–	–	–	–	–	–	–	–	–	–
–	–	COc1cc([C@@H]2c3cc4c(cc3[C@H](O)[C@H]3COC(=O)[C@H]23)OCO4)cc(OC)c1OC [PODOFILOX]	0.25	–	–	–	–	–	–	–	–	–	–	–	–
22	52	CNC(=C[N+](=O)[O-])NCCSCc1ccc(CN(C)C)o1.Cl [RANITIDINE HYDROCHLORIDE]	–	–	–	–	–	–	–	–	–	–	–	–	–

— ChEMBL document CHEMBL3286201, “Antileishmanial activity of a series of N²,N⁴-disubstituted quinazoline-2,4-diamines” (J Med Chem, 2014)
